Test results taken from patent publication US8241866B2, “Method for detection of microorganism and kit for detection of microorganism” (Morinaga Milk Industry Co., Ltd., priority 2005, dated 2012).

Legend:
[1] = tested on: Escherichia coli (live cells) and contaminants originated in UHT homogenized milk; format: cell-based; details: treatment after LP treatment, 37° C.; amsacrine 10 minutes, others 30 minutes; 7.5×10^6 cfu/ml
From the text: Specific procedures are as shown in a) to d) described below.

[2] = tested on: Listeria monocytogenes JCM 2873; test: Colony formation of Listeria cultured with ampicillin and gentamycin; format: cell-based; details: ampicillin 500 μg/ml together with gentamycin 200 μg/ml, 30° C. for 3 weeks
[3] = tested on: Mycobacterium tuberculosis H37RA; format: cell-based
Escherichia coli DH5α = test: FCM measurement after SYTO9/PI staining of EMA-treated Escherichia coli suspensions (live, injured, dead cells); format: cell-based
[4] = tested on: chromosomal DNA of Citrobacter koseri JCM 1658; test: Agarose gel electrophoresis of chromosomal DNA after EMA treatment, Citrobacter; format: cell-based; design: key: presence of this band was indicated as (+); absence of this band was indicated as (−); details: EMA 4° C. 30 minutes
[5] = tested on: Staphylococcus epidermidis KD strain; test: FCM measurement after SYTO9/PI staining of LP-treated and EMA-treated Staphylococcus epidermidis suspensions; format: cell-based; details: EMA treatment after LP treatment; 10 μl of 1000 μg/ml EMA to 1 ml, 4° C. 30 minutes, visible light 500 W 10 minutes
[6] = tested on: chromosomal DNA of Escherichia coli DH5α; test: Agarose gel electrophoresis of chromosomal DNA after EMA treatment, Escherichia coli; format: cell-based; design: key: presence of this band was indicated as (+); absence of this band was indicated as (−)
[7] = tested on: contaminants of somatic cells and injured cells in LTLT non-homogenized milk; test: FCM after SYTO9/PI staining of LP-treated and EMA-treated LTLT non-homogenized milk not inoculated with bacteria; details: LP-treated and EMA-treated (LPE-treated) LTLT non-homogenized milk not inoculated
Description: Each of the LTLT non-homogenized milk inoculated with Escherichia coli (live cells), LTLT non-homogenized milk inoculated with Staphylococcus epidermidis (live cells), and LTLT non-homogenized milk not inoculated with the bacteria was subjected to the same lipase treatment and proteinase K treatment (LP treatment) as well as EMA treatment as those in Example 2.
FCM measurement was performed for each of the samples prepared above (measurement time: 5 minutes) in the same manner as that in Control Example 1.

[8] = tested on: contaminants in heparinized human blood; test: FCM of human blood by EMA-LNP-FP method versus LNP-FP method; format: cell-based; details: 10 μl of 1000 μg/ml EMA to 1 ml blood, 4° C. 5 minutes, visible light 5 minutes
Description: Heparinized blood (type A) was collected from a healthy human subject, and a Listeria live cell suspension of 1.8×10^8 cfu/ml was diluted 10 times with the blood. The suspension was further serially diluted with the blood to prepare blood inoculated with 1.8×10^3 to […] cfu/ml of Listeria monocytogenes (live cells). […] Then, each sample was irradiated with visible light of 500 W for 5 minutes on ice. 750 μl of physiological saline, 200 μl of a 189 U/ml lipase solution and 10 μl of a 10000 U/ml deoxyribonuclease solution was added to each sample, and the sample was maintained at 30° C. for 30 minutes. […] The total volume of the aforementioned EMA-treated blood was carefully overlaid on 2 ml of Ficoll Paque filled beforehand in a 15 ml volume polypropylene tube, and subjected to centrifugation at 100×g for 5 minutes. […] The same procedure as that of the aforementioned method (referred to as the “EMA-LNP-FP method”) was also performed in parallel except that the EMA treatment was not performed (referred to as the “LNP-FP method”) to prepare a sample for FCM measurement.

[9] = tested on: chromosomal DNA of Salmonella enteritidis IID 604; test: Agarose gel electrophoresis of chromosomal DNA after EMA treatment, Salmonella; format: cell-based; design: key: presence of this band was indicated as (+); absence of this band was indicated as (−); details: EMA 4° C. 30 minutes
[10] = tested on: Escherichia coli (injured cells); format: cell-based; details: injured cells inoculated at 1.5×10^6 cfu/ml; LP treatment and EMA treatment
[11] = tested on: Mycobacterium tuberculosis H37RA; test: FCM after SYTO9/PI staining of EMA-treated Mycobacterium tuberculosis (live, injured, dead cells)
[12] = tested on: chromosomal DNA of Klebsiella oxytoca JCM 1665; test: Agarose gel electrophoresis of chromosomal DNA after EMA treatment, Klebsiella; format: cell-based; design: key: presence of this band was indicated as (+); absence of this band was indicated as (−); details: EMA 4° C. 30 minutes
[13] = after the EMA treatment, dead cells (boiling water 12 minutes)
[14] = after the EMA treatment, injured cells (boiling water 50 seconds)
[15] = after the EMA treatment, live cells
[16] = after the EMA treatment (about 30 μg/ml, 4° C. 2.5 hours), injured cells treated with isonicotinic acid hydrazide and rifampicin

Compound: O=C(O)c1cn(C2CC2)c2cc(N3CCNCC3)c(F)cc2c1=O [ciprofloxacin]
- separation of plotted areas of Escherichia coli (live cells) and contaminants [1]: clearly separated

Compound: Cc1c2ccncc2c(C)c2c1[nH]c1ccccc12 [ellipticine]
- separation of plotted areas of Escherichia coli (live cells) and contaminants [1]: clearly separated

Compound: gentamycin
- colony formation on L agar medium [2]: did not form colonies

Compound: NNC(=O)c1ccncc1 [isonicotinic acid hydrazide]
- colony formation on 7H10 medium [3]: did not form colonies

Compound: CC[C@@]1(O)C(=O)OCc2c1cc1n(c2=O)Cc2cc3ccccc3nc2-1 [camptothecin]
- separation of plotted areas of Escherichia coli (live cells) and contaminants [1]: clearly separated

Compound: CC[n+]1c(-c2ccccc2)c2cc(N=[N+]=[N-])ccc2c2ccc(N)cc21.[Cl-] [EMA, 8-azido-3-amino-6-phenyl-5-ethylphenanthradinium chloride]
- distinction of live cells and injured cells by FCM (Escherichia coli DH5α; EMA treatment after LP treatment, 10 μl of 1000 μg/ml EMA to 1 ml, 4° C. 30 minutes, visible light 500 W 10 minutes): clearly distinguish
- intensity of staining with SYTO9 for injured cells (Escherichia coli DH5α; after the EMA treatment versus before): markedly decreased
- PI region of main distribution, dead cells (Escherichia coli DH5α; [13]): PI(+) (The boundary value of the intensity of the staining with PI is defined to be an intensity of 2×10^2, results exceeding that value are represented as PI(+))
- SYTO9 region of main distribution, dead cells (Escherichia coli DH5α; [13]): SYTO9(−) (results lower than that value are represented as SYTO9(−))
- PI region of main distribution, injured cells (Escherichia coli DH5α; [14]): PI(−) (results lower than that value are represented as PI(−))
- SYTO9 region of main distribution, injured cells (Escherichia coli DH5α; [14]): SYTO9(−) (results lower than that value are represented as SYTO9(−))
- PI region of main distribution, live cells (Escherichia coli DH5α; [15]): PI(−) (results lower than that value are represented as PI(−))
- SYTO9 region of main distribution, live cells (Escherichia coli DH5α; [15]): SYTO9(+) (The boundary value of the intensity of the staining with SYTO9 is defined to be an intensity of 10^3, results exceeding that value are represented as SYTO9(+))
- LL band originated in chromosomal DNA, injured cells ([4]; EMA-treated injured cells): (−)
- LL band originated in chromosomal DNA, live cells ([4]; EMA-treated live cells): (+)
- distinction of live cells and injured cells by FCM [5]: the same results
- LL band originated in chromosomal DNA, dead cells ([6]; EMA-treated dead cells (FIG. 11)): (−)
- LL band originated in chromosomal DNA, injured cells ([6]; EMA-treated injured cells, EMA 4° C. 30 minutes): (−)
- LL band originated in chromosomal DNA, live cells ([6]; EMA-treated live cells, EMA 4° C. 30 minutes): (+)
- SYTO9 intensity [7]: below 5×10^2
- shift of plotted points of the contaminants corresponding to SYTO9(−)·PI(−) [8]: not shifted to the left direction
- LL band originated in chromosomal DNA, injured cells ([9]; EMA-treated injured cells): (−)
- LL band originated in chromosomal DNA, live cells ([9]; EMA-treated live cells): (+)
- plotted points in the SYTO9(+)·PI(−) region suggesting the presence of live cells [10]: hardly existed
- PI region, injured cells [11, 16]: PI(−) (results lower than that value are represented as PI(−))
- SYTO9 region, injured cells [11, 16]: SYTO9(−) (results lower than that value are represented as SYTO9(−))
- SYTO9 region of main distribution, dead cells [11, 13]: SYTO9(+) (The boundary value of the intensity of the staining with SYTO9 is defined to be an intensity of 10^3, results exceeding that value are represented as SYTO9(+))
- SYTO9 intensity of the injured cells ([11]; by the EMA treatment): markedly shifted to the left direction
- LL band originated in chromosomal DNA, injured cells ([12]; EMA-treated injured cells): (−)
- LL band originated in chromosomal DNA, live cells ([12]; EMA-treated live cells): (+)

Compound: CC1(C)S[C@@H]2[C@H](NC(=O)[C@H](N)c3ccccc3)C(=O)N2[C@H]1C(=O)O [ampicillin]
- colony formation on L agar medium [2]: did not form colonies
